Laboratory results taken from ChEMBL document CHEMBL4513134, “CO-ADD screening of University of Queensland (Australia) compounds” (2021).

How the values were obtained:
Escherichia coli = test: Antibacterial activity against Escherichia coli ATCC 25922 (CO-ADD:GN_001); MIC in CAMBH media using NBS plates, by OD(600); conditions: Concentration 32.0 ug.mL-1
Acinetobacter baumannii = test: Antibacterial activity against Acinetobacter baumannii ATCC 19606 (CO-ADD:GN_034); MIC in CAMBH media using NBS plates, by OD600; conditions: Concentration 32.0 ug.mL-1
Pseudomonas aeruginosa = conditions: ATCC 27853, Concentration 32.0 ug.mL-1
Description: Antibacterial activity against Pseudomonas aeruginosa ATCC 27853 (CO-ADD:GN_042); MIC in CAMBH media using NBS plates, by OD(600)

Klebsiella pneumoniae = conditions: ATCC 700603, Concentration 32.0 ug.mL-1
Description: Antibacterial activity against Klebsiella pneumoniae MDR ATCC 70063 (CO-ADD:GN_003); MIC in CAMBH media using NBS plates, by OD(600)

Staphylococcus aureus = test: Antibacterial activity against Staphylococcus aureus MRSA ATCC 43300 (CO-ADD:GP_020); MIC in CAMBH media, using NBS plates, by OD(600); conditions: Concentration 32.0 ug.mL-1

Measured: inhibition

NC(=O)c1ncc([N+](=O)[O-])[nH]1
Average; N=2: all assays above

Cc1ccc(CCn2cc([N+](=O)[O-])nc2C(N)=O)cc1
Average; N=2: all assays above

NC(=O)c1nc([N+](=O)[O-])cn1Cc1ccc(C(F)(F)F)cc1
Average; N=2: all assays above

O=C(NC1CC1)c1ncc([N+](=O)[O-])[nH]1
Average; N=2: all assays above

CS(=O)(=O)c1ccc(CNC(=O)c2ncc([N+](=O)[O-])[nH]2)cc1
Average; N=2: all assays above

O=C(NCc1ccccn1)c1ncc([N+](=O)[O-])[nH]1
Average; N=2: all assays above

O=C(NCc1ccccc1)c1nc([N+](=O)[O-])c[nH]1
Average; N=2: all assays above

O=C(c1ncc([N+](=O)[O-])[nH]1)N1CCOCC1
Average; N=2: all assays above

CC(=O)OCCn1c(-c2ccccc2)cn2cc([N+](=O)[O-])nc2c1=O
Average; N=2: all assays above

O=C(NCc1ccc(OC(F)(F)F)cc1)c1ncc([N+](=O)[O-])[nH]1
Average; N=2: all assays above

Nc1c[nH]c(C(=O)NCc2ccc(F)cc2)n1
Average; N=2: all assays above

CNC(=O)c1ncc([N+](=O)[O-])[nH]1
Average; N=2: all assays above

O=C(c1ncc([N+](=O)[O-])[nH]1)N1CCCC1
Average; N=2: all assays above

CC(=O)OCCn1cc([N+](=O)[O-])nc1C(N)=O
Average; N=2: all assays above

NC(=O)c1nc([N+](=O)[O-])cn1Cc1ccc(F)cc1
Average; N=2: all assays above

O=C(NC1CCCCC1)c1ncc([N+](=O)[O-])[nH]1
Average; N=2: all assays above
